The values below come from patent US20240390340A1 (INCYTE CORPORATION, priority 2023, published 2024).

Like-named read-outs stand apart in the source and are kept apart here.

By IC50 is commonly meant the concentration needed to halve the response being measured.

The target of experiment [1] is KRAS G12D (Homo sapiens, UniProt P01116, G12D). Kind of experiment: GDP-GTP exchange assay (bodipy-GDP/GppNHp, SOS1), KRAS G12D. The format is biochemical.
Experiment [2] deals with KRAS G12V (Homo sapiens, UniProt P01116, G12V). Kind of experiment: GDP-GTP exchange assay (bodipy-GDP/GppNHp, SOS1), KRAS G12V. The experiment is classed as biochemical.
Where [3] appears, read: bodipy-loaded KRAS G12D 2.5 nM, 4 h pre-incubation, value for the most potent isomer quoted for certain compounds, read-out: G12D (KRAS G12D exchange assay IC50).
Setting [4] is: KRAS G12V mutant, value for the most potent isomer quoted for certain compounds, read-out: G12V (KRAS G12V exchange assay IC50).

Sequence of KRAS G12V (P01116 1-188 isoform P01116-2 G12V): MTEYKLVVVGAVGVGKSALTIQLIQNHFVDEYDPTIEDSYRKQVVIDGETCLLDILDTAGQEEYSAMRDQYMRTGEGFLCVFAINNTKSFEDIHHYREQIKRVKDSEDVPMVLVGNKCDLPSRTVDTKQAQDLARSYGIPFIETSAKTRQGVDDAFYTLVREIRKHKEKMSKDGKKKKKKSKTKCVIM
Sequence of KRAS G12D (P01116 1-188 isoform P01116-2 G12D): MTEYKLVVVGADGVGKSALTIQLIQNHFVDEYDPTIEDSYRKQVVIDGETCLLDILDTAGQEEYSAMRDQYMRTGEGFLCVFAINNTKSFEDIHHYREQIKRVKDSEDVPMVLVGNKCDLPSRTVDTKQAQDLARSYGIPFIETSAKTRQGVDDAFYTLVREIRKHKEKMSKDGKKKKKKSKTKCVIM

Turning to `Cc1nc2c(F)c(-c3cccc(Cl)c3Cl)c(CCC#N)cc2c2c1cc([C@H]1C[C@H](OCc3cccnc3)CN1C(=O)C1CC1)n2[C@H]1[C@H]2CN[C@@H]1C2` [Example 95], the IC50 in experiment [1] (setting [3]) and in experiment [2] (setting [4]) was no more than 100 nM each time.
Consider `Cc1nc2c(F)c(-c3cccc(Cl)c3Cl)c(CCC#N)cc2c2c1cc([C@H]1C[C@H](OCc3cccnc3Cl)CN1C(=O)C1CC1)n2[C@H]1[C@H]2CN[C@@H]1C2` [Example 253], for which the half-inhibitory concentration (IC50) in experiment [1] (setting [3]) and in experiment [2] (setting [4]) was no more than 100 nM in each case.
As for `Cc1nc2c(F)c(-c3cccc(Cl)c3Cl)c(CCC#N)cc2c2c1cc([C@H]1C[C@H](n3cc(CC4CCNC4=O)nn3)CN1C(=O)C1CC1)n2[C@H]1[C@H]2CN[C@@H]1C2` (stereo partly shown) [Example 269], the IC50 in experiment [1] (setting [3]) and in experiment [2] (setting [4]) was no more than 100 nM each time.
Turning to `Cc1nc2c(F)c(-c3cccc(Cl)c3Cl)c(CCC#N)cc2c2c1cc([C@H]1C[C@H](OC[C@@H]3CCOC3)CN1C(=O)C1CC1)n2[C@H]1[C@H]2CN[C@@H]1C2` [Example 373], the IC50 in experiment [1] (setting [3]) and in experiment [2] (setting [4]) was no more than 100 nM each time.
With `Cc1nc2c(F)c(-c3cccc(Cl)c3Cl)c(CCC#N)cc2c2c1cc([C@H]1C[C@H](OCc3cccc(C(=O)N(C)C)c3)CN1C(=O)C1CC1)n2[C@H]1[C@H]2CN[C@@H]1C2` [Example 187], the IC50 in experiment [1] (setting [3]) and in experiment [2] (setting [4]) was no more than 100 nM in each case.
As to `Cc1nc2c(F)c(-c3cccc(Cl)c3Cl)c(CCC#N)cc2c2c1cc([C@H]1C[C@H](OC(C)c3c(F)cccc3F)CN1C(=O)C1CC1)n2[C@H]1[C@H]2CN[C@@H]1C2` (stereo partly shown) [Example 227], the IC50 in experiment [1] (setting [3]) and in experiment [2] (setting [4]) was no more than 100 nM throughout.
For `COC(=O)c1cnn([C@H]2C[C@H](c3cc4c(C)nc5c(F)c(-c6cccc(Cl)c6Cl)c(CCC#N)cc5c4n3[C@H]3[C@H]4CN[C@@H]3C4)N(C(=O)C3CC3)C2)c1` [Example 353], the IC50 in experiment [1] (setting [3]) and in experiment [2] (setting [4]) was no more than 100 nM throughout.
For `Cc1csnc1CO[C@H]1C[C@H](c2cc3c(C)nc4c(F)c(-c5cccc(Cl)c5Cl)c(CCC#N)cc4c3n2[C@H]2[C@H]3CN[C@@H]2C3)N(C(=O)C2CC2)[C@@H]1C` [Example 232], the 50% inhibitory concentration (IC50) in experiment [1] (setting [3]) and in experiment [2] (setting [4]) was no more than 100 nM throughout.
In the case of `Cc1nc2c(F)c(-c3cccc(Cl)c3Cl)c(CCC#N)cc2c2c1cc([C@H]1C[C@H](Oc3cccc(Cl)c3)CN1C(=O)C1CC1)n2[C@H]1[C@H]2CN[C@@H]1C2` [Example 161], the IC50 in experiment [1] (setting [3]) and in experiment [2] (setting [4]) was no more than 100 nM in each case.
Turning to `Cc1nc2c(F)c(-c3cccc(Cl)c3Cl)c(CCC#N)cc2c2c1cc([C@H]1C[C@H](O[C@@H](C)c3ccccn3)[C@@H](C)N1C(=O)C1CC1)n2[C@H]1[C@H]2CN[C@@H]1C2` [Example 245], the IC50 in experiment [1] (setting [3]) and in experiment [2] (setting [4]) was no more than 100 nM throughout.
`Cc1ccn([C@H]2C[C@H](c3cc4c(C)nc5c(F)c(-c6cccc(Cl)c6Cl)c(CCC#N)cc5c4n3[C@H]3[C@H]4CN[C@@H]3C4)N(C(=O)C3CC3)C2)n1` [Example 315]: the IC50 in experiment [1] (setting [3]) and in experiment [2] (setting [4]) was no more than 100 nM in each case.
Consider `Cc1nc2c(F)c(-c3cccc(Cl)c3Cl)c(CCC#N)cc2c2c1cc([C@H]1C[C@H](OCc3ccccc3C#N)CN1C(=O)C1CC1)n2[C@H]1[C@H]2CN[C@@H]1C2` [Example 98], for which the IC50 in experiment [1] (setting [3]) and in experiment [2] (setting [4]) was no more than 100 nM each time.
As for `COc1ccc(CO[C@H]2C[C@H](c3cc4c(C)nc5c(F)c(-c6cccc(Cl)c6Cl)c(CCC#N)cc5c4n3[C@H]3[C@H]4CN[C@@H]3C4)N(C(=O)C3CC3)C2)c(C#N)c1` [Example 252], the IC50 in experiment [1] (setting [3]) and in experiment [2] (setting [4]) was no more than 100 nM each time.
As to `Cc1cccc(C)c1CO[C@H]1C[C@H](c2cc3c(C)nc4c(F)c(-c5cccc(Cl)c5Cl)c(CCC#N)cc4c3n2[C@H]2[C@H]3CN[C@@H]2C3)N(C(=O)C2CC2)C1` [Example 113], the IC50 in experiment [1] (setting [3]) and in experiment [2] (setting [4]) was no more than 100 nM in each case.
For the molecule `Cc1nc2c(F)c(-c3cccc(Cl)c3Cl)c(CCC#N)cc2c2c1cc([C@H]1C[C@H](OC3CC3C)CN1C(=O)C1CC1)n2[C@H]1[C@H]2CN[C@@H]1C2` (stereo partly shown) [Example 379], the IC50 in experiment [1] (setting [3]) and in experiment [2] (setting [4]) was no more than 100 nM throughout.
Turning to `Cc1nc2c(F)c(-c3cccc(Cl)c3Cl)c(CCC#N)cc2c2c1cc([C@H]1C[C@H](Oc3cccc(C(F)(F)F)n3)CN1C(=O)C1CC1)n2[C@H]1C2CNC1C2` (stereo partly shown) [Example 142], the IC50 in experiment [1] (setting [3]) and in experiment [2] (setting [4]) was no more than 100 nM each time.
Take `Cc1nc2c(F)c(-c3cccc(Cl)c3Cl)c(CCC#N)cc2c2c1cc([C@H]1C[C@H](n3cc(Cc4ccccc4)nn3)CN1C(=O)C1CC1)n2[C@H]1[C@H]2CN[C@@H]1C2` [Example 145]: the IC50 in experiment [1] (setting [3]) and in experiment [2] (setting [4]) was no more than 100 nM throughout.
Take `Cc1nc2c(F)c(-c3cccc(Cl)c3Cl)c(CCC#N)cc2c2c1cc([C@H]1C[C@H](n3cc(CCC(=O)O)nn3)CN1C(=O)C1CC1)n2[C@H]1[C@H]2CN[C@@H]1C2` [Example 322]: the IC50 in experiment [1] (setting [3]) and in experiment [2] (setting [4]) was no more than 100 nM each time.
For the molecule `Cc1cccnc1CO[C@H]1C[C@H](c2cc3c(C)nc4c(F)c(-c5cccc(Cl)c5Cl)c(CCC#N)cc4c3n2[C@H]2[C@H]3CN[C@@H]2C3)N(C(=O)C2CC2)C1` [Example 150], the IC50 in experiment [1] (setting [3]) and in experiment [2] (setting [4]) was no more than 100 nM each time.
Regarding `Cc1nc2c(F)c(-c3cccc(Cl)c3Cl)c(CCC#N)cc2c2c1cc([C@H]1C[C@H](Oc3cn(C)nc3C(F)(F)F)CN1C(=O)C1CC1)n2[C@H]1[C@H]2CN[C@@H]1C2` [Example 376], the IC50 in experiment [1] (setting [3]) and in experiment [2] (setting [4]) was no more than 100 nM throughout.
For `Cc1cnn([C@H]2C[C@H](c3cc4c(C)nc5c(F)c(-c6cccc(Cl)c6Cl)c(CCC#N)cc5c4n3[C@H]3[C@H]4CN[C@@H]3C4)N(C(=O)C3CC3)C2)c1` [Example 279], the IC50 in experiment [1] (setting [3]) and in experiment [2] (setting [4]) was no more than 100 nM in each case.
For `Cc1nc2c(F)c(-c3cccc(Cl)c3Cl)c(CCC#N)cc2c2c1cc([C@H]1C[C@H](Oc3ccncc3)CN1C(=O)C1CC1)n2[C@H]1[C@H]2CN[C@@H]1C2` [Example 193], the IC50 in experiment [1] (setting [3]) and in experiment [2] (setting [4]) was no more than 100 nM throughout.
Take `COc1cc(O[C@H]2C[C@H](c3cc4c(C)nc5c(F)c(-c6cccc(Cl)c6Cl)c(CCC#N)cc5c4n3[C@H]3[C@H]4CN[C@@H]3C4)N(C(=O)C3CC3)C2)ccc1C#N` [Example 287]: the IC50 in experiment [1] (setting [3]) and in experiment [2] (setting [4]) was no more than 100 nM each time.
In the case of `Cc1nc2c(F)c(-c3cccc(Cl)c3Cl)c(CCC#N)cc2c2c1cc([C@H]1C[C@H](Oc3cccnc3N)CN1C(=O)C1CC1)n2[C@H]1[C@H]2CN[C@@H]1C2` [Example 288], the 50% inhibitory concentration (IC50) in experiment [1] (setting [3]) and in experiment [2] (setting [4]) was no more than 100 nM in each case.
`Cc1nc2c(F)c(-c3cccc(Cl)c3Cl)c(CCC#N)cc2c2c1cc([C@H]1C[C@H](Oc3cnn(C(F)F)c3)[C@@H](C)N1C(=O)C1CC1)n2[C@H]1[C@H]2CN[C@@H]1C2` [Example 214]: the IC50 in experiment [1] (setting [3]) and in experiment [2] (setting [4]) was no more than 100 nM in each case.
Take `Cc1nc2c(F)c(-c3cccc(Cl)c3Cl)c(CCC#N)cc2c2c1cc([C@H]1C[C@H](n3nnnc3C)CN1C(=O)C1CC1)n2[C@H]1[C@H]2CN[C@@H]1C2` [Example 397]: the concentration for half-maximal inhibition (IC50) in experiment [1] (setting [3]) and in experiment [2] (setting [4]) was no more than 100 nM in each case.
In the case of `Cc1nc2c(F)c(-c3cccc(Cl)c3Cl)c(CCC#N)cc2c2c1cc([C@H]1C[C@H](Oc3cccc(OC(F)(F)F)c3)CN1C(=O)C1CC1)n2[C@H]1[C@H]2CN[C@@H]1C2` [Example 171], the IC50 in experiment [1] (setting [3]) and in experiment [2] (setting [4]) was no more than 100 nM throughout.
As to `COc1ccc(O[C@H]2C[C@H](c3cc4c(C)nc5c(F)c(-c6cccc(Cl)c6Cl)c(CCC#N)cc5c4n3[C@H]3[C@H]4CN[C@@H]3C4)N(C(=O)C3CC3)C2)cn1` [Example 301], the concentration for half-maximal inhibition (IC50) in experiment [1] (setting [3]) and in experiment [2] (setting [4]) was no more than 100 nM each time.
In the case of `Cc1nc2c(F)c(-c3cccc(Cl)c3Cl)c(CCC#N)cc2c2c1cc([C@H]1C[C@H](O[C@H](C)c3ccccn3)[C@@H](C)N1C(=O)C1CC1)n2[C@H]1[C@H]2CN[C@@H]1C2` [Example 244], the IC50 in experiment [1] (setting [3]) and in experiment [2] (setting [4]) was no more than 100 nM throughout.
As for `Cc1nc2c(F)c(-c3cccc(Cl)c3Cl)c(CCC#N)cc2c2c1cc([C@H]1C[C@H](Oc3ccc(N4CCOCC4)nc3)CN1C(=O)C1CC1)n2[C@H]1[C@H]2CN[C@@H]1C2` [Example 36, 3-(1-((1R,4R,5S)-2-Azabicyclo[2.1.1]hexan-5-yl)-2-((2R,4S)-1-(cyclopropanecarbonyl)-4-((6-morpholinopyridin-3-yl)oxy)pyrrolidin-2-yl)-7-(2,3-dichlorophenyl)-6-fluoro-4-methyl-1H-pyrrolo[3,2-c]quinolin-8-yl)propanenitrile], the IC50 is no more than 100 nM in experiment [1] (Table H, column G12D, for compounds isolated as several atropisomers/diastereoisomers the value for the most potent isomer is quoted, read-out: KRAS G12D exchange assay IC50) and no more than 100 nM in experiment [2] (Table H, column G12V, for compounds isolated as several atropisomers/diastereoisomers the value for the most potent isomer is quoted, read-out: KRAS G12V exchange assay IC50).
As for `Cc1ccc(CO[C@H]2C[C@H](c3cc4c(C)nc5c(F)c(-c6cccc(Cl)c6Cl)c(CCC#N)cc5c4n3[C@H]3[C@H]4CN[C@@H]3C4)N(C(=O)C3CC3)C2)cc1` [Example 92], the IC50 in experiment [1] (setting [3]) and in experiment [2] (setting [4]) was no more than 100 nM each time.
Consider `COc1ccc(F)c(CO[C@H]2C[C@H](c3cc4c(C)nc5c(F)c(-c6cccc(Cl)c6Cl)c(CCC#N)cc5c4n3[C@H]3[C@H]4CN[C@@H]3C4)N(C(=O)C3CC3)C2)c1F` [Example 186], for which the IC50 in experiment [1] (setting [3]) and in experiment [2] (setting [4]) was no more than 100 nM in each case.
On to `Cc1cnn([C@H]2C[C@H](c3cc4c(C)nc5c(F)c(-c6cccc(Cl)c6Cl)c(CCC#N)cc5c4n3[C@H]3[C@H]4CN[C@@H]3C4)N(C(=O)C3CC3)C2)n1` [Example 344], for which the IC50 in experiment [1] (setting [3]) and in experiment [2] (setting [4]) was no more than 100 nM in each case.
With `Cc1nc2c(F)c(-c3cccc(Cl)c3Cl)c(CCC#N)cc2c2c1cc([C@H]1C[C@H](n3cc(C4CC4)nn3)CN1C(=O)C1CC1)n2[C@H]1[C@H]2CN[C@@H]1C2` [Example 179], the IC50 in experiment [1] (setting [3]) and in experiment [2] (setting [4]) was no more than 100 nM each time.
Take `Cc1nc(CO[C@H]2C[C@H](c3cc4c(C)nc5c(F)c(-c6cccc(Cl)c6Cl)c(CCC#N)cc5c4n3[C@H]3[C@H]4CN[C@@H]3C4)N(C(=O)C3(C)CC3)C2)cs1` [Example 128]: the IC50 in experiment [1] (setting [3]) and in experiment [2] (setting [4]) was no more than 100 nM throughout.
